US4000985A, “Azo dyes having a high solubility in petroleum fuels” (Morton-Norwich Products, Inc., priority 1975, dated 1977)

How the values were obtained:
Type in all cases: physicochemical
[1] = Storage solubility in xylene at 20°-25° C. and -10° C.
Description: The solutions obtained were stored at 20°-25°C. and at -10° C. Where any separation of dye occurred, the dye content of the remaining solution was determined colorimetrically.

[2] = Physical state of the isolated dye; conditions: for Physical State of Dye: after isolation according to Procedure B
Text: alternatively, the crude liquid dye may be taken up with a volatile solvent and the solvent removed during the drying process to yield a non-volatile liquid colorant.

[3] = Storage solubility in No. 1 and No. 2 Heating Oil at ambient temperature and -10° C.
Description: The resultant mixtures were stored at ambient temperatures (20° to 25° C.) and at -10° C. Where any separation of dye occurred, the dye content of the remaining solution was determined colorimetrically.

[4] = Dissolution of 58% dye in 42% fuel by warming, cooling to 25° C. (six heating/diesel oils)
[5] = as above; conditions: 58% by weight dye, warmed, cooled to 25° C.
Description: No. 2 Regular Grade Diesel Oil
Each dye-fuel oil mixture was warmed with stirring and then cooled to 25° C.

[6] = Rate and extent of dissolution in No. 1 and No. 2 Heating Oils at 25° C. (colorimetric); conditions: for solubility in fuel oils (in words): No. 1 and No. 2 fuel oils; for dissolution in the heating oils: two minutes contact
Description: The solubility properties of each of the dyes of Examples 16-41 were evaluated in the fuels No. 1 and No. 2 Heating Oils, respectively. The procedure was as follows:
Where the dyes are solid dyes, excess of pulverized solid dye, far beyond that which would dissolve, i.e., 30 to 35% dye, was added to the respective oils at 25° C. and agitated at constant speed. Samples were removed at 1, 10 and 20 minute intervals, filtered, and the amount of dissolved dye determined colorimetrically.
The tarry non-solid dyes were charged in proportions of 50-60% dye to 50-40% oil rather than 30-35% used for the solid dyes. In fact, it was very difficult to stir the tarry dye-fuel oil mixture at a dye concentration of 50%. Samples for these dyes were taken after 2 minutes. The longer initial time for the tarry dyes was to permit reasonable contact between solvent and the viscous, condensed dye.

[7] = Equilibrium solubility of Solvent Red No. 19 in petroleum fuels (filtrate, colorimetric)
Description: Solvent Red No. 19 was subjected to the same solubility test as set forth in Example 14.
In each instance, the precipitated mass was filtered and the dye content of the filtrate was determined colorimetrically.

[8] = No. 1 Heating Oil, 20° C.-25° C. (Table 10)
[9] = No. 1 Heating Oil, -10° C. (Table 10)
[10] = No. 2 Heating Oil, 20° C.-25° C. (Table 11)
[11] = No. 2 Heating Oil, -10° C. (Table 11)
[12] = No. 1 Heating Oil, 20° C.-25° C. (Table 8)
[13] = No. 2 Heating Oil, 20° C.-25° C. (Table 9)

## CCCCC(CC)COCCCNc1ccc2ccccc2c1N=Nc1cc(C)c(N=Nc2ccccc2C)cc1C (centres unmarked) [Example 10]
[1]; 20° C.-25° C. (Table 12)
  Solubility (% by Wt.): 36.3 % by Wt.
[1]; -10° C. (Table 12)
  Solubility (% by Wt.): 20.8 % by Wt.
[2]
  Physical State of Dye at 20° C.: Tar
[3]; [8]
  Solubility (% by Wt.): 29.5 % by Wt.
[3]; [9]
  Solubility (% by Wt.): 19.8 % by Wt.
[3]; [10]
  Solubility (% by Wt.): 29.7 % by Wt.
[3]; [11]
  Solubility (% by Wt.): 12.1 % by Wt.
[4]
  equilibrium solubilities: exceeded 25 percent by weight
[5]
  behavior of dye-fuel oil mixture on cooling/storage: displayed some separation of dye upon lengthy storage

## CCCCC(CC)COCCCNc1ccc2ccccc2c1N=Nc1ccc(N=Nc2ccccc2)cc1 (centres unmarked) [Example 8]
[1]; 20° C.-25° C. (Table 12)
  Solubility (% by Wt.): Complete
[1]; -10° C. (Table 12)
  Solubility (% by Wt.): Complete
[2]
  Physical State of Dye at 20° C.: Liquid
[2]; listed as 27
  Physical State of Dye: liquid
[6]; No. 1 Fuel Oil, 20 Minutes, 25° C., aminoazobenzene dyes (Table 4)
  Percent Dissolved: 52.3%
[6]; No. 1 Fuel Oil, 2 min., aminoazobenzene dyes (Table 4)
  Percent Dissolved: 52.3%
[6]
  solubility in fuel oils (in words): exceptionally high solubility
  dissolution in the heating oils: dissolved completely after two minutes contact
[6]; No. 2 Fuel Oil, 20 Minutes, 25° C., aminoazobenzene dyes (Table 5)
  Percent Dissolved: 52.3%
[6]; No. 2 Fuel Oil, 2 min., aminoazobenzene dyes (Table 5)
  Percent Dissolved: 52.3%
[3]; [8]
  Solubility (% by Wt.): Complete
[3]; [9]
  Solubility (% by Wt.): Complete
[3]; [10]
  Solubility (% by Wt.): Complete
[3]; [11]
  Solubility (% by Wt.): Complete
[5]
  behavior of dye-fuel oil mixture on cooling/storage: completely soluble and remained soluble at temperatures ranging from -10 °C to 25 °C

## CCCCC(CC)CNc1ccc2ccccc2c1N=Nc1ccc(N=Nc2ccccc2C)cc1C (centres unmarked) [Example 1]
[1]; 20° C.-25° C. (Table 12)
  Solubility (% by Wt.): Complete
[1]; -10° C. (Table 12)
  Solubility (% by Wt.): Complete
[2]
  Physical State of Dye at 20° C.: Liquid
[2]; listed as 38
  Physical State of Dye: liquid dye
[6]; No. 1 Fuel Oil, 20 Minutes, 25° C., aminoazotoluene dyes (Table 6)
  Percent Dissolved: 58.0%
[6]; No. 1 Fuel Oil, 2 min, aminoazotoluene dyes (Table 6)
  Percent Dissolved: 58.0%
[6]
  solubility in fuel oils (in words): exceptionally high solubility
  dissolution in the heating oils: dissolved completely after two minutes contact
[6]; No. 2 Fuel Oil, 20 Minutes, 25° C., aminoazotoluene dyes (Table 7)
  Percent Dissolved: 55.3%
[6]; No. 2 Fuel Oil, 2 min, aminoazotoluene dyes (Table 7)
  Percent Dissolved: 55.3%
[3]; [12]
  Solubility (% by Wt.): Complete
[3]; No. 1 Heating Oil, -10° C. (Table 8)
  Solubility (% by Wt.): Complete
[3]; [13]
  Solubility (% by Wt.): Complete
[3]; No. 2 Heating Oil, -10° C. (Table 9)
  Solubility (% by Wt.): Complete
[5]
  behavior of dye-fuel oil mixture on cooling/storage: completely soluble and remained soluble at temperatures ranging from -10 °C to 25 °C

## CCNc1ccc2ccccc2c1N=Nc1ccc(N=Nc2ccccc2)cc1 [Solvent Red No. 19]
[7]; No. 1 Heating Oil
  % by Weight Soluble (At Equilibrium): 2.23 % by Weight
[7]; No. 1 Premium Diesel
  % by Weight Soluble (At Equilibrium): 1.89 % by Weight
[7]; No. 2 Heating Oil
  % by Weight Soluble (At Equilibrium): 3.41 % by Weight
[7]; No. 2 Premium Diesel
  % by Weight Soluble (At Equilibrium): 2.30 % by Weight
[7]; No. 2 Regular Diesel
  % by Weight Soluble (At Equilibrium): 2.63 % by Weight
[7]; No. 4 Heating Oil
  % by Weight Soluble (At Equilibrium): 5.76 % by Weight
[5]
  behavior of dye-fuel oil mixture on cooling/storage: precipitation occurred immediately

## CCCCC(CC)COCCCNc1ccc2ccccc2c1N=Nc1ccc(N=Nc2ccccc2)cc1C (centres unmarked) [Example 9]
[1]; 20° C.-25° C. (Table 12)
  Solubility (% by Wt.): Complete
[1]; -10° C. (Table 12)
  Solubility (% by Wt.): 38.1 % by Wt.
[2]
  Physical State of Dye at 20° C.: Tar
[3]; [8]
  Solubility (% by Wt.): 26.6 % by Wt.
[3]; [9]
  Solubility (% by Wt.): 9.5 % by Wt.
[3]; [10]
  Solubility (% by Wt.): 28.8 % by Wt.
[3]; [11]
  Solubility (% by Wt.): 9.5 % by Wt.
[4]
  equilibrium solubilities: exceeded 25 percent by weight
[5]
  behavior of dye-fuel oil mixture on cooling/storage: displayed some separation of dye upon lengthy storage

## CCCCC(CC)CNc1ccc2ccccc2c1N=Nc1cc(C)c(N=Nc2ccccc2C)cc1C (centres unmarked) [Example 4]
[1]; 20° C.-25° C. (Table 12)
  Solubility (% by Wt.): 50.0 % by Wt.
[1]; -10° C. (Table 12)
  Solubility (% by Wt.): 25.0 % by Wt.
[2]
  Physical State of Dye at 20° C.: Liquid
[3]; [12]
  Solubility (% by Wt.): 44.8 % by Wt.
[3]; [13]
  Solubility (% by Wt.): 44.1 % by Wt.
[4]
  equilibrium solubilities: exceeded 25 percent by weight
[5]
  behavior of dye-fuel oil mixture on cooling/storage: displayed some separation of dye upon lengthy storage
